Results reported in patent US10144742B2 (Millennium Pharmaceuticals, Inc., priority 2014, dated 2018).

What was measured:
[1] = biological target: hNAMPT protein (Homo sapiens (Human), UniProt P43490); experiment: NAMPT enzyme assay (TR-FRET/HTRF, BodiPY ligand, anti 6His-Tb); format: binding; conditions: for inhibition at 1 µM: NAMPT inhibition at compound concentration 1 μM, read-out: Percent Inhibition; for IC50: NAMPT inhibition, IC50 range class, read-out: IC50
In short: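 TR-FRET binding assay in which His-tagged human NAMPT with anti-6His-Tb is displaced by compound from a BodiPY ligand, incubated 1 h at rt in the dark. Excitation was at 320 nm, with the 520/486 nm emission ratio read. IC50 was fitted from inhibition relative to DMSO controls.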

[2] = tested on: PC3 cells; experiment: PC3 growth inhibition (Cell-titer glo, 72 hours); format: cell-based; conditions: Homo sapiens, PC-3; compound concentration 1.667 μM; PC3 cells, 72 hours, Cell-titer glo; read-out: Percent Inhibition (PC3 growth inhibition)
In short: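 PC3 cells in RPMI1640 seeded overnight at 37 °C, 5% CO2, then exposed to compound diluted in AIM serum-free medium for 72 h. Viability by CellTiter-Glo luminescence vs DMSO controls; single-concentration % remaining viability (1 μM or 1.667 μM), or GI50/LD50 from curves.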

hNAMPT protein, sequence (P43490 whole entry): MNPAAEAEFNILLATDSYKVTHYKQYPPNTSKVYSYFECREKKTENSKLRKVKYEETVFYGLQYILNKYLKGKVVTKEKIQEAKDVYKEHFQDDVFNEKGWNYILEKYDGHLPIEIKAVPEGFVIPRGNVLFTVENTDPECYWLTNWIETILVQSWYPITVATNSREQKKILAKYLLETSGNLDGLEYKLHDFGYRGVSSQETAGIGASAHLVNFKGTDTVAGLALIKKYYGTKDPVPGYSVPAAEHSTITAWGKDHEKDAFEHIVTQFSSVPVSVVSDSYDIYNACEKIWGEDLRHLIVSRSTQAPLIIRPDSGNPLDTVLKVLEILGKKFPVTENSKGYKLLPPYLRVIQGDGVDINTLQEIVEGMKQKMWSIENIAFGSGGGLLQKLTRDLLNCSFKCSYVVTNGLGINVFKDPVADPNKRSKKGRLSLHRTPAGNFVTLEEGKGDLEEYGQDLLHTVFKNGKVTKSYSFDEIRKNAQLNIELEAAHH

In the case of `CC(C)c1nc2ccc(C(=O)NCCCc3ncc[nH]3)cc2nc1-c1ccc(F)cc1` [Compound I-444, 3-(4-fluorophenyl)-N-[3-(1H-imidazol-2-yl)propyl]-2-isopropylquinoxaline-6-carboxamide], the inhibition at 1 µM [1] is reported as 77%, the IC50 [1] is reported as 100 to 500 nM and the inhibition at 1.667 µM [2] is reported as 1%.

With `Cc1ccc(C(F)(F)F)cc1-c1nc2cc(C(=O)NCCCc3ncc[nH]3)ccc2nc1-c1ccc(F)cc1` [Compound I-445, 2-(4-fluorophenyl)-N-[3-(1H-imidazol-2-yl)propyl]-3-[2-methyl-5-(trifluoromethyl)phenyl]quinoxaline-6-carboxamide] the inhibition at 1 µM [1] was 91%, the IC50 [1] was less than 100 nM and the inhibition at 1.667 µM [2] was 2%.

In the case of `Cc1noc(C)c1COc1nc2ccc(C(=O)NCCCc3ncc[nH]3)cc2nc1-c1ccc(F)cc1` [Compound I-446, 2-[(3,5-dimethylisoxazol-4-yl)methoxy]-3-(4-fluorophenyl)-N-[3-(1H-imidazol-2-yl)propyl]quinoxaline-6-carboxamide], the inhibition at 1 µM [1] is reported as greater than 99%, the IC50 [1] is reported as less than 100 nM and the inhibition at 1.667 µM [2] is reported as 2%.

With `CCOc1cccc(-c2nc3cc(C(=O)NCCCc4ncc[nH]4)ccc3nc2-c2ccc(F)cc2)c1` [Compound I-447, 3-(3-ethoxyphenyl)-2-(4-fluorophenyl)-N-[3-(1H-imidazol-2-yl)propyl]quinoxaline-6-carboxamide] the inhibition at 1 µM [1] was 99%, the IC50 [1] was less than 100 nM and the inhibition at 1.667 µM [2] was 2%.

Compound `COc1ccc(-c2nc3cc(C(=O)NCCCc4ncc[nH]4)ccc3nc2-c2ccc(F)cc2)cc1` [Compound I-448, 2-(4-fluorophenyl)-N-[3-(1H-imidazol-2-yl)propyl]-3-(4-methoxyphenyl)quinoxaline-6-carboxamide] has an inhibition at 1 µM [1] of 67%, an IC50 [1] of 100 to 500 nM and an inhibition at 1.667 µM [2] of 2%.

In the case of `O=C(NCCCc1ncc[nH]1)c1ccc2nc(-c3ccc(F)cc3)c(-c3cc(F)c(F)c(F)c3)nc2c1` [Compound I-449, 2-(4-fluorophenyl)-N-[3-(1H-imidazol-2-yl)propyl]-3-(3,4,5-trifluorophenyl)quinoxaline-6-carboxamide], the inhibition at 1 µM [1] is reported as 82%, the IC50 [1] is reported as 100 to 500 nM and the inhibition at 1.667 µM [2] is reported as 3%.

`Cc1ccc(C)c(-c2nc3cc(C(=O)NCCCc4ncc[nH]4)ccc3nc2-c2ccc(F)cc2)c1` [Compound I-450, 3-(2,5-dimethylphenyl)-2-(4-fluorophenyl)-N-[3-(1H-imidazol-2-yl)propyl]quinoxaline-6-carboxamide] was tested, and the inhibition at 1 µM [1] was 93%, the IC50 [1] was less than 100 nM and the inhibition at 1.667 µM [2] was 1%.

`O=C(NCCCc1ncc[nH]1)c1ccc2nc(-c3ccc(F)cc3)c(-c3cc(C(F)(F)F)ccc3F)nc2c1` [Compound I-451, 2-(4-fluorophenyl)-3-[2-fluoro-5-(trifluoromethyl)phenyl]-N-[3-(1H-imidazol-2-yl)propyl]quinoxaline-6-carboxamide] showed an inhibition at 1 µM [1] of 97%, an IC50 [1] of less than 100 nM and an inhibition at 1.667 µM [2] of 2%.

`CC(C)Oc1nc2ccc(C(=O)NCc3ccc4nccn4c3)cc2nc1-c1ccc(F)cc1` [Compound I-452, 3-(4-Fluorophenyl)-N-(imidazo[1,2-a]pyridin-6-ylmethyl)-2-isopropoxyquinoxaline-6-carboxamide] showed an inhibition at 1 µM [1] of 75%, an IC50 [1] of 100 to 500 nM and an inhibition at 1.667 µM [2] of 3%.

For `O=C(NCCCc1ncc[nH]1)c1ccc2nc(-n3cnc4ccccc43)c(-c3ccc(F)cc3)nc2c1` [Compound I-453, 2-(1H-benzimidazol-1-yl)-3-(4-fluorophenyl)-N-[3-(1H-imidazol-2-yl)propyl]quinoxaline-6-carboxamide], the inhibition at 1 µM [1] was 88%, the IC50 [1] was 100 to 500 nM and the inhibition at 1.667 µM [2] was 3%.

In the case of `O=C(NCCCc1ncc[nH]1)c1ccc2nc(OCc3ccccc3Cl)c(-c3ccc(F)cc3)nc2c1` [Compound I-454, 2-[(2-chlorobenzyl)oxy]-3-(4-fluorophenyl)-N-[3-(1H-imidazol-2-yl)propyl]quinoxaline-6-carboxamide], the inhibition at 1 µM [1] is reported as 95%, the IC50 [1] is reported as less than 100 nM and the inhibition at 1.667 µM [2] is reported as 2%.
